# Reference: paper PMC11680386 (Viruses, 2024)
# Tests used:
# [1] = molecular target: DENV-2 NS2B-NS3 protease (Dengue virus type 2, UniProt P29990); test: Trans-cleavage FRET assay with DENV-2 NS2B-NS3 protease; type: cell-based; conditions: for inhibition at 10 µM: read-out: Reduction of DENV-2 NS2B-NS3 protease activity
# [2] = MTT cytotoxicity assay; type: cell-based, African green monkeys; conditions: African green monkey, Vero E6 cells
# [3] = tested on: DENV-2 strain 16681; test: In vitro infectivity assay (NS4B immunofluorescence/DAPI) in Vero E6 cells; type: cell-based; conditions: for Selectivity Index (CC50/EC50): CC50 Vero E6 / EC50 infectivity; for EC50: Dengue virus, DENV2, Vero C1008, 96 h, read-out: Inhibition of DENV-2 Infectivity (EC50, μM)
# [4] = tested on: DENV-2 strain 16681; test: Virus yield assay (TCID50); type: cell-based; conditions: Dengue virus, DENV2, 96 h post-treatment
# [5] = tested on: DENV-2; test: Time-of-addition/removal assay with DENV-2; type: cell-based; conditions: Dengue virus, DENV2; compound applied 2 h after infection, 18 h incubation; read-out: EC50 for viral infectivity, post-entry treatment
# [6] = trans-cleavage FRET assay, cells expressing CFP-trrg-YFP transfected with DENV-2 NS2B-NS3
# Chain of DENV-2 NS2B-NS3 protease (P29990 1476-2093): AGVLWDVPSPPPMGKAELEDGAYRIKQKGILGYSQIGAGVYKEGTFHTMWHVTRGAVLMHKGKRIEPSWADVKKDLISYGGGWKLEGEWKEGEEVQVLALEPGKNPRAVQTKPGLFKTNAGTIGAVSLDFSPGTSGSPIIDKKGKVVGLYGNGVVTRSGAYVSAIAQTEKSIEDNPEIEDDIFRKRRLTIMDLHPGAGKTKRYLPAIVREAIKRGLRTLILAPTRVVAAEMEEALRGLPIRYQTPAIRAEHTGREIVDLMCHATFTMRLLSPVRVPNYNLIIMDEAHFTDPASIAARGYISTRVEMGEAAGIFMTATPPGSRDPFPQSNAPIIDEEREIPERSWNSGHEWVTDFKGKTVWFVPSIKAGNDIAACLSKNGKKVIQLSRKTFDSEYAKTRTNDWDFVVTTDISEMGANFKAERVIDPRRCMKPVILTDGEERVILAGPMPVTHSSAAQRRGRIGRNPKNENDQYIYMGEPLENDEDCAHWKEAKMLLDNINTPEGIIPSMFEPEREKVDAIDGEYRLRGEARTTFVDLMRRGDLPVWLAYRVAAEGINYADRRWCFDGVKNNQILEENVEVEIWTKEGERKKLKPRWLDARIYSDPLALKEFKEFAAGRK
# Chain of DENV-2 NS2B-NS3 protease (P29990 1346-1475): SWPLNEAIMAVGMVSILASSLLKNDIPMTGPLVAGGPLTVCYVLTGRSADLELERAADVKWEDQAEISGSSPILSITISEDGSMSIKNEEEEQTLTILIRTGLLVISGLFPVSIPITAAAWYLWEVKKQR
Compound,inhibition at 10 µM [1] [%],CC50 at 96 h [2] [nM],EC50 [3] [µM],EC50 [4] [nM],EC50 [5] [nM],other results
"CC1(C)[C@@H](O[C@H]2O[C@H](C(=O)O)[C@@H](O)[C@H](O)[C@H]2O[C@@H]2O[C@H](C(=O)O)[C@@H](O)[C@H](O)[C@H]2O)CC[C@]2(C)[C@H]3C(=O)C=C4[C@@H]5C[C@@](C)(C(=O)O)CC[C@]5(C)CC[C@@]4(C)[C@]3(C)CC[C@@H]12 [Compound 1, Glycyrrhizic acid, reference compound]",,,,,,"NS2B-NS3 Protease (IC50, μM) [1, 6]: no inhibitory effect"
COC(=O)C(CCC(=O)O)NC(=O)C1OC(OC2C(OC3CCC4(C)C(CCC5(C)C4C(=O)C=C4C6CC(C)(C(=O)O)CCC6(C)CCC45C)C3(C)C)OC(C(=O)NC(CCC(=O)O)C(=O)OC)C(O)C2O)C(O)C(O)C1O (stereo not shown) [Compound 12],> 20,,,,,
CCOC(=O)C(CC(C)C)NC(=O)C1OC(OC2C(OC3CCC4(C)C(CCC5(C)C4C(=O)C=C4C6CC(C)(C(=O)O)CCC6(C)CCC45C)C3(C)C)OC(C(=O)NC(CC(C)C)C(=O)OCC)C(O)C2O)C(O)C(O)C1O (stereo not shown) [Compound 16],> 20,,,,,"IC50 [1, 6]: > 10000 nM"
COC(=O)CCCCCCNC(=O)C1OC(OC2C(OC3CCC4(C)C(CCC5(C)C4C(=O)C=C4C6CC(C)(C(=O)O)CCC6(C)CCC45C)C3(C)C)OC(C(=O)NCCCCCCC(=O)OC)C(O)C2O)C(O)C(O)C1O (stereo not shown) [Compound 19],> 20,> 100000,2.34 ± 0.08,430,1910,Selectivity Index (CC50/EC50) [3]: >42
COC(=O)CCC(NC(=O)C1OC(OC2C(OC3CCC4(C)C(CCC5(C)C4C(=O)C=C4C6CC(C)(C(=O)O)CCC6(C)CCC45C)C3(C)C)OC(C(=O)NC(CCC(=O)OC)C(=O)OC)C(O)C2O)C(O)C(O)C1O)C(=O)OC (stereo not shown) [Compound 11],> 20,> 100000,0.034 ± 0.001,42,5,
CCOC(=O)CCNC(=O)C1OC(OC2C(OC3CCC4(C)C(CCC5(C)C4C(=O)C=C4C6CC(C)(C(=O)O)CCC6(C)CCC45C)C3(C)C)OC(C(=O)NCCC(=O)OCC)C(O)C2O)C(O)C(O)C1O (stereo not shown) [Compound 17],> 20,> 100000,4.34 ± 0.008,790,2990,Selectivity Index (CC50/EC50) [3]: >23
"CN(C)[C@@H]1C(O)=C(C(N)=O)C(=O)[C@@]2(O)C(O)=C3C(=O)c4c(O)cccc4[C@@](C)(O)[C@H]3C[C@@H]12 [T, tetracycline, reference compound]",> 20,,,,,
COC(=O)CCCCCCCCCCNC(=O)C1OC(OC2C(OC3CCC4(C)C(CCC5(C)C4C(=O)C=C4C6CC(C)(C(=O)O)CCC6(C)CCC45C)C3(C)C)OC(C(=O)NCCCCCCCCCCC(=O)OC)C(O)C2O)C(O)C(O)C1O (stereo not shown) [Compound 20],> 20,,,,,"IC50 [1, 6]: > 10000 nM"
CCOC(=O)C(Cc1ccccc1)NC(=O)C1OC(OC2C(OC3CCC4(C)C(CCC5(C)C4C(=O)C=C4C6CC(C)(C(=O)NC(Cc7ccccc7)C(=O)OCC)CCC6(C)CCC45C)C3(C)C)OC(C(=O)NC(Cc3ccccc3)C(=O)OCC)C(O)C2O)C(O)C(O)C1O (stereo not shown) [Compound 8],> 20,,,,,
